Measured values as given in the NIST ThermoML archive (doi:10.1021/je060271a).

Conditions: Liquid, Vibrating tube method

CCCCCCCC(=O)OCC(COC(=O)CCCCCCC)(COC(=O)CCCCCCC)COC(=O)CCCCCCC [pentaerythritol tetraoctanoate]
Conditions	mass density [kg/m3]
323.15 K, 31267 kPa	960.2
323.15 K, 31296 kPa	960.3
323.15 K, 31325 kPa	960.2
323.15 K, 31360 kPa	960.3
323.15 K, 31389 kPa	960.2
323.15 K, 31418 kPa	960.1
323.15 K, 31452 kPa	960.2
323.15 K, 31481 kPa	960.3
323.15 K, 31510 kPa	960.4
323.15 K, 31540 kPa	960.4
323.15 K, 31575 kPa	960.3
323.15 K, 31604 kPa	960.4
323.15 K, 31640 kPa	960.3
323.15 K, 31669 kPa	960.4
323.15 K, 31699 kPa	960.3
323.15 K, 31731 kPa	960.4
323.15 K, 31761 kPa	960.4
323.15 K, 31785 kPa	960.4
323.15 K, 31827 kPa	960.5
323.15 K, 31856 kPa	960.5
323.15 K, 31892 kPa	960.5
323.15 K, 31922 kPa	960.5
323.15 K, 31952 kPa	960.6
323.15 K, 31987 kPa	960.6
323.15 K, 32018 kPa	960.7
323.15 K, 32048 kPa	960.5
323.15 K, 32084 kPa	960.6
323.15 K, 32115 kPa	960.6
323.15 K, 32147 kPa	960.7
323.15 K, 32178 kPa	960.7
323.15 K, 32208 kPa	960.8
323.15 K, 32244 kPa	960.7
323.15 K, 32275 kPa	960.8
323.15 K, 32305 kPa	960.6
323.15 K, 32343 kPa	960.8
323.15 K, 32374 kPa	960.8
323.15 K, 32404 kPa	960.6
323.15 K, 32442 kPa	960.8
323.15 K, 32467 kPa	960.8
323.15 K, 32504 kPa	961
323.15 K, 32542 kPa	960.9
323.15 K, 32574 kPa	960.9
323.15 K, 32605 kPa	961
323.15 K, 32642 kPa	960.9
323.15 K, 32706 kPa	961
323.15 K, 32744 kPa	961.1
323.15 K, 32776 kPa	961.1
323.15 K, 32838 kPa	961.1
323.15 K, 32877 kPa	961.1
323.15 K, 32909 kPa	961
323.15 K, 32941 kPa	961.1
323.15 K, 32980 kPa	961
323.15 K, 33012 kPa	961.2
323.15 K, 33050 kPa	961.1
323.15 K, 33083 kPa	961.2
323.15 K, 33115 kPa	961.2
323.15 K, 33147 kPa	961.2
323.15 K, 33186 kPa	961.2
323.15 K, 33219 kPa	961.3
323.15 K, 33258 kPa	961.2
323.15 K, 33291 kPa	961.3
323.15 K, 33324 kPa	961.3
323.15 K, 33363 kPa	961.4
323.15 K, 33396 kPa	961.5
323.15 K, 33429 kPa	961.3
323.15 K, 33470 kPa	961.4
323.15 K, 33503 kPa	961.3
323.15 K, 33536 kPa	961.6
323.15 K, 33576 kPa	961.4
323.15 K, 33610 kPa	961.5
323.15 K, 33644 kPa	961.5
323.15 K, 33685 kPa	961.5
323.15 K, 33720 kPa	961.6
323.15 K, 33755 kPa	961.5
323.15 K, 33797 kPa	961.6
323.15 K, 33833 kPa	961.5
323.15 K, 33870 kPa	961.6
323.15 K, 33916 kPa	961.7
323.15 K, 33952 kPa	961.7
323.15 K, 33982 kPa	961.7
323.15 K, 34010 kPa	961.8
323.15 K, 34034 kPa	961.7
323.15 K, 34058 kPa	961.7
323.15 K, 34086 kPa	961.7
323.15 K, 34110 kPa	961.8
323.15 K, 34134 kPa	961.8
323.15 K, 34159 kPa	961.8
323.15 K, 34188 kPa	961.9
323.15 K, 34213 kPa	961.9
323.15 K, 34242 kPa	961.8
323.15 K, 34268 kPa	961.9
323.15 K, 34294 kPa	961.8
323.15 K, 34321 kPa	962.1
323.15 K, 34354 kPa	962
323.15 K, 34382 kPa	961.9
323.15 K, 34411 kPa	962
323.15 K, 34448 kPa	962.1
323.15 K, 34472 kPa	961.9
323.15 K, 34473 kPa	962
323.15 K, 34474 kPa	962
323.16 K, 603.67 kPa	941
323.16 K, 875.73 kPa	941.2
323.16 K, 892.76 kPa	941.2
323.16 K, 910.31 kPa	941.3
323.16 K, 929.42 kPa	941.3
323.16 K, 952.34 kPa	941.3
323.16 K, 1561.9 kPa	941.8
323.16 K, 1605.8 kPa	941.7
323.16 K, 1638 kPa	941.7
323.16 K, 1659.1 kPa	941.7
323.16 K, 1674.9 kPa	941.8
323.16 K, 1688.1 kPa	941.8
323.16 K, 2395.8 kPa	942.3
323.16 K, 2562.1 kPa	942.5
323.16 K, 2571.5 kPa	942.4
323.16 K, 2579.5 kPa	942.4
323.16 K, 2587.6 kPa	942.5
323.16 K, 3525.4 kPa	943
323.16 K, 3596.1 kPa	943.1
323.16 K, 3609.1 kPa	943.2
323.16 K, 3622.8 kPa	943.1
323.16 K, 3638.9 kPa	943.2
323.16 K, 3652.2 kPa	943.2
323.16 K, 3663.5 kPa	943.2
323.16 K, 3682.5 kPa	943.1
323.16 K, 3696.6 kPa	943.1
323.16 K, 3864.6 kPa	943.3
323.16 K, 3879.5 kPa	943.3
323.16 K, 3913.1 kPa	943.3
323.16 K, 3928.7 kPa	943.4
323.16 K, 3945.2 kPa	943.3
323.16 K, 3960.6 kPa	943.3
323.16 K, 3976.2 kPa	943.4
323.16 K, 3991.8 kPa	943.3
323.16 K, 4010.5 kPa	943.3
323.16 K, 4025.5 kPa	943.3
323.16 K, 4044.2 kPa	943.5
323.16 K, 4061 kPa	943.5
323.16 K, 4225.4 kPa	943.5
323.16 K, 4242.4 kPa	943.6
323.16 K, 4245.7 kPa	943.5
323.16 K, 4456.7 kPa	943.7
323.16 K, 4480.6 kPa	943.7
323.16 K, 4501.4 kPa	943.6
323.16 K, 4587.3 kPa	943.7
323.16 K, 4633.2 kPa	943.7
323.16 K, 4694.8 kPa	943.8
323.16 K, 4742.6 kPa	943.9
